In patent US12187709B2 (Genentech, Inc., priority 2021, dated 2025):

Key:
Cbl-b = Cbl-b (Homo sapiens (Human), UniProt Q13191); experiment: Cbl-b LCK Ub TR-FRET assay (Cbl-b Lck HTRF); type: biochemical; conditions: for IC50: Cbl-b LCK Ub TR-FRET; for fold-selectivity (Cbl-b over C-cbl) / (fold-selectivity) Cbl-b and C-Cbl Selectivity: ratio C-cbl Lck HTRF IC50 / Cbl-b Lck HTRF IC50
In short: (§1)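 Detection reagents added, brief spin, 20 min RT. IC50 fit normalized to no-LCK (low) and DMSO (high) controls.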

c-Cbl = c-Cbl (Homo sapiens (Human), UniProt P22681); experiment: C-Cbl LCK Ub TR-FRET assay (C-cbl Lck HTRF); type: biochemical
In short: as §1

[1] = molecular target: Human Cbl-b (residues 40-426) (Homo sapiens (Human), UniProt Q13191); experiment: Cbl-b SPR assay; type: binding; conditions: for Fold of selectivity: C-cbl SPR Kd vs Cbl-b SPR Kd; for Kd: SPR, 20° C.
In short: (§2)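 Captured protein (1300-1500 RU for both isoforms) was probed in multi-cycle kinetics with 6 concentrations in 2-fold dilution, 60 s contact, 40 μl/min, dissociation 120-1200 s, double-referenced. Kinetic and affinity parameters came from a 1:1 binding fit. For slow off-rates, kd was set independently by a chaser-based method.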

c-Cbl (residues 47-435) = c-Cbl (residues 47-435) (Homo sapiens (Human), UniProt P22681); experiment: c-Cbl SPR assay; type: binding; conditions: 20° C.
In short: as §2

Sequence of Cbl-b (Q13191 40-426): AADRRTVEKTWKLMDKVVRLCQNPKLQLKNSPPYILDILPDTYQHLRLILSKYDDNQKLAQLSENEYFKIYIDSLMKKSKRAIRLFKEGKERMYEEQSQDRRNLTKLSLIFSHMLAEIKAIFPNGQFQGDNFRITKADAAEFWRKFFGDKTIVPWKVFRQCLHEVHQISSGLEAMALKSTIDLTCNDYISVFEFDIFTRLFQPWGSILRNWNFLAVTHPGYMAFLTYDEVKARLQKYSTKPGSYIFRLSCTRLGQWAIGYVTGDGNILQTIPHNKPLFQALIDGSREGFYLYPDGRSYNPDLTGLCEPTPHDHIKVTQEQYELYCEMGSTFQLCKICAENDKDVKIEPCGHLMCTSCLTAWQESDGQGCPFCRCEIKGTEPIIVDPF
Sequence of Human Cbl-b (residues 40-426) (Q13191 40-426): as above
Sequence of c-Cbl (residues 47-435) (P22681 47-435): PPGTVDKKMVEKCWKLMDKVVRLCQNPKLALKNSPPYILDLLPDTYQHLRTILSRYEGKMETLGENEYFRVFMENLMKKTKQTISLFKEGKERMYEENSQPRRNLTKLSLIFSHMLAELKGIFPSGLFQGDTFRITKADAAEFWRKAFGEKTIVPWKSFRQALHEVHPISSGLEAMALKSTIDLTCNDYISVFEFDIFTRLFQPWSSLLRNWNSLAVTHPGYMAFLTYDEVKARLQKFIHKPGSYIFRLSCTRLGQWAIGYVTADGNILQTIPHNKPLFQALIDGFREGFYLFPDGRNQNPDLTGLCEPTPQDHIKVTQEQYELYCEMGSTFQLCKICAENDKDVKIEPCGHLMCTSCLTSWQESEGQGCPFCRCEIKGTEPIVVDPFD
Sequence of c-Cbl (P22681 47-435): as above

Row | SMILES | IC50 (Cbl-b) [µM] | fold-selectivity (Cbl-b over C-cbl) (Cbl-b) [x] | IC50 (c-Cbl) [µM] | Fold of selectivity [1] [×] | Kd [1] [µM] | Kd (c-Cbl (residues 47-435)) [µM] | IC50 (Cbl-b; Example 121) [µM] | (fold-selectivity) Cbl-b and C-Cbl Selectivity (Cbl-b) [x]
1 | C=CCNc1cc(N2Cc3c(cc(CNC4(C)CCC4)cc3C(F)(F)F)C2=O)cc([C@]2(c3nncn3C)C[C@@H](OC)C2)c1 [Compound 240, 2-(3-(allylamino)-5-((1s,3s)-3-methoxy-1-(4-methyl-4H-1,2,4-triazol-3-yl)cyclobutyl)phenyl)-6-(((1-methylcyclobutyl)amino)methyl)-4-(trifluoromethyl)isoindolin-1-one] | 0.014 | 3.7 | 0.051 | 12 | 0.0023 | 0.027 | – | –
2 | CO[C@H]1C[C@@](c2cccc(N3Cc4c(cc(CNC5(C)CCC5)cc4C(F)F)C3=O)c2)(c2nncn2C)C1 [Compound 116, 4-(difluoromethyl)-2-(3-((1s,3s)-3-methoxy-1-(4-methyl-4H-1,2,4-triazol-3-yl)cyclobutyl)phenyl)-6-(((1-methylcyclobutyl)amino)methyl)isoindolin-1-one] | 0.025 | 6.0 | 0.15 | 15 | 0.0081 | 0.11 | – | –
3 | CC(C)[C@](O)(c1cccc(N2Cc3c(cc(CNC4(C)CCC4)cc3C(F)(F)F)C2=O)c1)c1nncn1C [Compound 310, (S)-2-(3-(1-hydroxy-2-methyl-1-(4-methyl-4H-1,2,4-triazol-3-yl)propyl)phenyl)-6-(((1-methylcyclobutyl)amino)methyl)-4-(trifluoromethyl)isoindolin-1-one] | 0.024 | 4.7 | 0.11 | 3.7 | 0.03 | 0.11 | – | –
4 | CO[C@H]1C[C@@](c2cc(NCCC#N)cc(N3Cc4c(cc(CNC5(C)CCC5)cc4C(F)(F)F)C3=O)c2)(c2nncn2C)C1 [Compound 224] | 0.02 | 5.0 | 0.1 | 10 | 0.0095 | 0.1 | – | –
5 | CO[C@H]1C[C@](c2cccc(N3Cc4c(cccc4C(F)(F)F)C3=O)c2)(c2nncn2C)C1 [Compound 196, 2-(3-((1r,3r)-3-methoxy-1-(4-methyl-4H-1,2,4-triazol-3-yl)cyclobutyl)phenyl)-4-(trifluoromethyl)isoindolin-1-one] | 1.5 | 5.6 | 8.3 | 5.5 | 1.8 | 9.9 | – | –
6 | CO[C@H]1C[C@](c2cccc(N3Cc4c(cc(CNC5CC6(C5)CC6F)cc4C(F)(F)F)C3=O)c2)(c2nncn2C)C1 (stereo partly drawn) [Compound 504, 6-(((1-fluorospiro[2.3]hexan-5-yl)amino)methyl)-2-(3-((1r,3r)-3-methoxy-1-(4-methyl-4H-1,2,4-triazol-3-yl)cyclobutyl)phenyl)-4-(trifluoromethyl)isoindolin-1-one] | – | – | 0.068 | 16 | 0.0057 | 0.09 | 0.013 | 5.1
7 | Cn1cnnc1[C@]1(c2cccc(N3Cc4c(cc(CNC5(C)CCC5)cc4C(F)(F)F)C3=O)c2)C[C@]2(CCCO2)C1 [Compound 340, 2-(3-((2s, 4r)-2-(4-methyl-4H-1,2,4-triazol-3-yl)-5-oxaspiro[3.4]octan-2-yl)phenyl)-6-(((1-methylcyclobutyl)amino)methyl)-4-(trifluoromethyl) isoindolin-1-one] | 0.11 | 10 | 1.1 | 24 | 0.082 | 1.9 | – | –
8 | Cn1cnnc1C1(c2cc(OC3CCCC3)nc(N3Cc4c(cc(CNC5(C)CCC5)cc4C(F)(F)F)C3=O)c2)CC2(COC2)C1 [Compound 193] | 0.036 | 11 | 0.42 | 27 | 0.012 | 0.32 | – | –
9 | Cn1cnnc1[C@H](c1cccc(N2Cc3c(cc(CNC4(C)CCC4)cc3C(F)(F)F)C2=O)c1)[C@H]1C[C@@H](C)C1 (single isomer, unassigned) [Compound 377] | 0.24 | 11 | 2.5 | 11 | 0.24 | 2.6 | – | –
10 | Cn1cnnc1[C@]1(c2cccc(N3Cc4c(cc(CNC5(C)CCC5)cc4C(F)(F)F)C3=O)c2)C[C@H](OCF)C1 [Compound 370, 2-(3-((1s,3s)-3-(fluoromethoxy)-1-(4-methyl-4H-1,2,4-triazol-3-yl)cyclobutyl)phenyl)-6-(((1-methylcyclobutyl)amino)methyl)-4-(trifluoromethyl)isoindolin-1-one] | 0.013 | 3.2 | 0.042 | 9 | 0.0042 | 0.039 | – | –
11 | CC[C@H]1C[C@](c2cccc(N3Cc4c(Cl)cc(CNC5(C)CCC5)cc4C3=O)c2)(c2nncn2C)C1 [Compound 375, 4-chloro-2-(3-((1s,3r)-3-ethyl-1-(4-methyl-4H-1,2,4-triazol-3-yl)cyclobutyl)phenyl)-6-(((1-methylcyclobutyl)amino)methyl)isoindolin-1-one] | 0.0064 | 2.5 | 0.016 | 11 | 0.001 | 0.011 | – | –
12 | CO[C@H]1C[C@](c2cccc(N3Cc4c(cc(CNC5C[C@@H]6C[C@H]5CO6)cc4C(F)(F)F)C3=O)c2)(c2nncn2C)C1 (stereo partly drawn) [Compound 500, 6-((2-oxabicyclo[2.2.1]heptan-5-ylamino)methyl)-2-(3-((1r,3r)-3-methoxy-1-(4-methyl-4H-1,2,4-triazol-3-y)cyclobutyl)phenyl)-4-(trifluoromethyl)isoindolin-1-one] | – | – | 0.085 | 12 | 0.01 | 0.12 | 0.016 | 5.3
13 | CO[C@H]1C[C@](c2cccc(N3Cc4c(cc([C@@H](N)C(C)(C)C)cc4C(F)(F)F)C3=O)c2)(c2nncn2C)C1 (single isomer, unassigned) [Compound 361] | 0.0081 | 4.4 | 0.036 | 21 | 0.004 | 0.084 | – | –
14 | Cn1cnnc1[C@H](c1cccc(N2Cc3c(cc(CNC4(C)CCC4)cc3C(F)(F)F)C2=O)c1)[C@H]1C[C@H](C#N)C1 (single isomer, unassigned) [Compound 142] | 0.2 | 1.8 | 0.35 | 3.8 | 0.37 | 1.3 | – | –
15 | Cn1cnnc1C1(c2cccc(N3Cc4c(cc(CNC5(C)CCC5)cc4C(F)(F)F)C3=O)c2)CC1 [Compound 283, 2-(3-(1-(4-methyl-4H-1,2,4-triazol-3-yl)cyclopropyl)phenyl)-6-(((1-methylcyclobutyl)amino)methyl)-4-(trifluoromethyl)isoindolin-1-one] | 0.081 | 2.7 | 0.22 | 5.3 | 0.043 | 0.22 | – | –
